According to publication PMC9909315, “SY-707, an ALK/FAK/IGF1R inhibitor, suppresses growth and metastasis of breast cancer cells” (Acta Biochimica et Biophysica Sinica, 2022):

What was measured:
[1] = test system: 4T1 breast cancer metastasis to the lung; experiment: Metastasis analysis in vivo (lung nodules, 4T1 model); set-up: species or system nude mice; settings: 4T1, treatment alone: SY-707 100 mg/kg/day PO; paclitaxel 10 or 20 mg/kg/week IV; 20 days; not statistically different
Experimental: Metastasis was detected in mouse lungs after the mice were sacrificed at the last dosing day. The lungs of each mouse were excised immediately and fixed with 4% paraformaldehyde for 24 h, then the lungs were photographed (three photographs per section per mouse) and the metastatic nodules in the lungs were manually counted and the data was analyzed for compound evaluation.
Mice were inoculated with 4T1 cells in PBS at right and left flanks expect the normal control group ( Figure 6A), SY-707 with or without paclitaxel was administered for 20 days when tumor volumes reached 150–300 mm ^3. The mice were sacrificed on the last day of drug administration, then the lungs were collected and metastatic nodules were counted manually for the evaluation of metastasis of 4T1 breast cancer.
The normal group (A) and the vehicle group which treatment with 20% SBE (B) were control. Mouse lungs were taken at the last day of treatment and fixed with 4% paraformaldehyde for 24 h, then the lungs were photographed and the metastatic nodules were counted manually for further analysis. *P<0.05, **P<0.01.

[2] = test system: MCF-7 cells; experiment: Cell cycle analysis (PI, flow cytometry); type: cell-based; settings: MCF-7, 24 h, dose-dependent; decrease of S phase
Experimental: (§1) MCF-7 cells were treated with 0.1% DMSO (control) or with SY-707 solution at indicated concentrations for 24 h at 37°C, then the cells were harvested by centrifugation at 350 g and washed twice with PBS. Cell apoptosis was determined using the PE Annexin V Apoptosis Detection kit (BD Biosciences, San Jose, USA) following the manufacture’s guides. Breifly, cells were resuspended with 100 μL of binding buffer containing Annexin V and 7-AAD. After 15 min of incubation at room temperature in the dark, 400 μL of binding buffer was added to the mixture and the cells were analyzed with a Guava flow cytometer (Millipore). Cell cycle arrest was evaluated by incorporation of propidium (PI; Sigma-Aldrich, St Louis, USA) into the permeablized cells. After being treated with DMSO or compounds for 24 h, cells were harvested, washed twice with cold PBS, fixed with ice-cold 70% ethanol, followed by a secondary staining step with staining buffer (0.25 mg/mL RNase, 0.025 mg/mL PI, in PBS) for 1 h at 37°C. Compound regulation of cell-cycle was analyzed using the Guava flow cytometer. Data were analyzed with FlowJo software.

[3] = test system: phosphorylation of IGF1R; experiment: Western blot of IGF1R phosphorylation in T47D cells after IGF1; type: cell-based; settings: 1 h treatment, then 100 ng/mL IGF1 for 10 min, dose-dependent
Experimental: Equal amounts of cell lysates were loaded onto 10% SDS-PAGE gel and separated by electrophoresis. Separated proteins were then electro-transferred onto polyvinylidene fluoride (PVDF) membranes (Millipore, Bedford, USA). After being blocked with Tris-buffered saline containing 0.1% Tween-20 (TBST) and 5% bovine serum albumin (BSA), the membranes were incubated with primary antibodies at room temperature for 2 hours or at 4°C, then washed with TBST, followed by treatment with horseradish peroxidase (HRP)-conjugated goat anti-rabbit IgG secondary antibody at room temperature for another 1 h. The targeted protein bands were visualized using an enhanced chemiluminescence (ECL) plus system (Thermo Fisher Scientific). […]
Figure4 Inhibitory effects of SY-707 on the phosphorylation of FAK(A,B) Concentration-dependent inhibition of SY-707 on phosphorylation of FAK in T47D (A) and MCF-7 (B) cells. […] Cell lysates were analyzed by western blot analysis using specific antibodies against p-FAK, p-Pyk2, p-AKT and p-ERK respectively. […] Cell lysates were analyzed by western blot analysis using specific antibodies against p-IGF1R, p-STAT3, p-AKT and p-ERK respectively.

[4] = test system: MCF-7 cells; experiment: PE Annexin V/7-AAD apoptosis flow cytometry; type: cell-based; settings: MCF-7, 0.01, 0.1 and 1 μM, 24 h
Experimental: as §1

[5] = test system: solid cancer cells; experiment: Cell proliferation assay, summary over the cell line series; type: cell-based; settings: 72 h, read-out: IC50 values (summary over the solid cancer cell lines)
Experimental: MCF-7, T47D, MDA-MB-231, MIA Paca-2, PANC-1, SW620, HT-29, U87MG, and A549 cell lines were purchased from the Cell Bank of Chinese Academy of Science (Shanghai, China). Cells were cultured in DMEM or RPMI-1640 (Gibco, BRL, USA) supplemented with 10% FBS (HyClone, Logan, USA) and 50 IU penicillin/streptomycin in a humidified atmosphere with 5% CO 2 at 37°C. The effects of SY-707 on cell proliferation were measured using CellTiter-Glo ® or CellTiter-Blue ® Cell Viability Assay kits (Promega, Beijing, China). In brief, cells were seeded in 96-well plates at low destiny with 195 μL of medium per well. The stock solutions of compounds were 3-fold serially diluted with DMSO from 10 mM to 0.3 nM, and 4 μL of solution at each concentration was mixed with 96 μL of serum free medium, then 5 μL of the resulted solution was added to each well. […] The luminescence signals were measured using EnVision ® multilabel plate reader (PerkinElmer), and the fluorescent signals were examined using FlexStation 3 (Molecular Devices, Sunnyvale, USA), and the IC 50 values were calculated using Prism ® software (Version 5.0) and presented as the average of three independent experiments performed in duplicate.

## COc1cc(N2CCC(N3CCN(C)CC3)CC2)ccc1Nc1nc2c(c(Nc3ccccc3S(=O)(=O)NC(C)C)n1)CCN2 [SY-707, N-isopropyl-2-((2-((2-methoxy-4-(4-(4-methylpiperazin-1-yl)piperidin-1-yl)phenyl)amino)-6,7-dihydro-5H-pyrrolo[2,3-d]pyrimidin-4-yl)amino)benzenesulfonamide]
[1]
  number of metastatic nodules in the lungs vs vehicle group: reduced the number of metastatic nodules
[2]
  cell cycle arrest: pronounced G2/M phase arrest
[3]
  phosphorylation of IGF1R: block the phosphorylation
[4]
  Late apoptosis: dose-dependently induced
[5]
  IC50: 0.5 to 10 µM
